The results in this text go back to ChEMBL document CHEMBL1221220, “Transport and signaling via the amino acid binding site of the yeast Gap1 amino acid transceptor” (Nat Chem Biol, 2009).

Where a chain is given by its changes, count along the chain named. Active and inactive are the calls of the source. The calls are words filed in the database; no cut-off is given here.

For test [1], the system named is T1, General amino-acid permease GAP1 (Saccharomyces cerevisiae), P19145 [A396C].
T1 sequence (whole entry): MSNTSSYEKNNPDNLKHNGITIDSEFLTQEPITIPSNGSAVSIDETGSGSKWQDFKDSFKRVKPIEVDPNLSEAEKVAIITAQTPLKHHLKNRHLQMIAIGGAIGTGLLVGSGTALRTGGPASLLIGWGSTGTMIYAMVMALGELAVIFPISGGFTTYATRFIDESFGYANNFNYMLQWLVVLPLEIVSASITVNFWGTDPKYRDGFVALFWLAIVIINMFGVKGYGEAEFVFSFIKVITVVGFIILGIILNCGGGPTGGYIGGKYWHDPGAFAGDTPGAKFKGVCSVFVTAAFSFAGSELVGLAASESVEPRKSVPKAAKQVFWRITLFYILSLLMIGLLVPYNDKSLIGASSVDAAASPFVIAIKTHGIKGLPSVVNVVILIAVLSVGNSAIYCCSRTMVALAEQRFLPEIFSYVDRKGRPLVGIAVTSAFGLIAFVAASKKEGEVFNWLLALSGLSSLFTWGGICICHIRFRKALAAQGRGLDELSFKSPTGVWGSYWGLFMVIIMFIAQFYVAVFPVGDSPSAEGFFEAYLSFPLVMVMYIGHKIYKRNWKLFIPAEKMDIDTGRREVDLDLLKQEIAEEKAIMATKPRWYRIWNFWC
The test can be described thus: Activation of yeast Gap1 A396C mutant-mediated amino acid uptake at 10 mM.

Test [2] deals with T2, General amino-acid permease GAP1 (Saccharomyces cerevisiae), P19145 [M401C].
T2 sequence (whole entry): T1 sequence (whole entry) with C396A, M401C
The test can be described thus: Induction of yeast Gap1 M401C mutant-mediated amino acid uptake at 2 mM in presence of 10 mM MTSEA treated before compound addition.

Test [3] has as its system T3, General amino-acid permease GAP1 (Saccharomyces cerevisiae), P19145 [N391C].
T3 sequence (whole entry): T1 sequence (whole entry) with N391C, C396A
Nature of the test: Induction of yeast Gap1 N391C mutant-mediated trehalose activation at 10 mM.

The subject of test [4] is T4, General amino-acid permease GAP1 (Saccharomyces cerevisiae), P19145 [A403C].
T4 sequence (whole entry): T1 sequence (whole entry) with C396A, A403C
The test can be described thus: Induction of yeast Gap1 A403C mutant-mediated amino acid uptake at 2 mM in presence of 10 mM MTSEA treated before compound addition.

In the case of `NC(=O)NCCC[C@H](N)C(=O)O`, the outcome in test [1] and in test [3] was inactive. Also, the outcome in test [2] and in test [4] was Active.
